# Patent US8728457B2, “Methods of inducing differentiation of stem cells” (priority 2001, dated 2014)
# Columns and labels:
# P19 EC cells [1] = settings: van den Eijnden-van Raaij et al, 1991; cited from earlier work
# Brachyury T = assay: Northern blot of Brachyury T in P19EC aggregates; type: cell-based, mouse; settings: FIG. 10B
# Protocol: (§1) END-2 cells and hES cells were cultured as described in Example 1. The hES2 cell line from ES Cell International Pte Ltd was used in all experiments. […] Co-cultures were then grown for up to 6 weeks and scored for the presence of areas of beating muscle from 5 days onwards. HepG2 cells, a carcinoma cell line resembling liver parenchymal cells (Knowles et al, (1980) Science 209:497-9), were cultured in DMEM plus 10% FCS and passaged twice weekly. […] Hanging-drop cultures of P19 EC cells were initiated and maintained in DMEM/Ham's F12 (1:1), as described previously (Mummery et al, 1991), using regular FCS while bulk production of P19 embryoid bodies in the presence or absence of END-2 conditioned medium for isolation of RNA for Northem blotting, was in the presence of charcoal-stripped FCS, as described (Mummery et al, 1991) to reduce background levels of cardiomyocyte differentiation caused by lipophilic substances possibly with retinoid-like activity in FCS. P19 clone 6 were cultured in αMEM and treated αMEM conditioned by END-2 cells. For electrophysiology, beating aggregates were dissociated using collagenase and replated on gelatine-coated coverslips.
# RNA was isolated from P19 aggregates and poly A+ RNA selected, as described previously (Mummery et al, 1990, Dev. Biol. 142: 406413).
# Background differentiation levels are reduced virtually to zero if the FCS is passed over an activated charcoal column (DCC-FCS) to remove residual retinoids; in addition, differentiation is blocked by activin (van den Eijnden-van Raaij et al, 1991, Mech. Dev. 33:157-166). […] The P19EC assay system was preferred because these cells are feeder independent for undifferentiated growth. […] Moreover, the induction of Brachyury T is blocked by the additional presence of activin (FIG. 10B), consistent with its ability to block the formation of beating muscle in aggregates. The transient expression of Brachyury T is similar to that observed during early mesoderm differentiation during gastrulation of the mouse embryo.
# [2] = tested on: hES-derived cardiomyocytes; assay: Beating of hES-derived cardiomyocytes in response to pharmacological agonists; type: cell-based, human; settings: hES2/END-2 co-culture derived cardiomyocytes
# Protocol: as §1
# The majority of the experiments described here were carried out using the hES2 cell line (Reubinoff et al, 2000). […] Oct4 expression thus correlated with phenotypic characteristics of undifferentiated cells. hES cells were subcultured by transferring small clumps of undifferentiated cells either to new, mit.C-treated MEFs or confluent cultures of mit.C-treated END-2 cells. After approximately 5d under these conditions, epithelial cells became evident which over the next few days become fluid-filled cysts (FIG. 1A). […] In addition, by 10 d areas of rhythmically contracting cells in more solid aggregates become evident (FIG. 1A, 3e) with a variety of overall morphologies (FIG. 1B, 3e). […]
# P19 EC cells [3] = assay: Induction of beating muscle in replated P19EC aggregates (hanging drops); type: cell-based, mouse
# Protocol: as §1, with “coverslips. […]” for “coverslips.”
compound,measurement,setting,value
activin,effect on differentiation of P19EC aggregates to beating muscle,P19 EC cells [1],blocked
same,effect on DMSO induced Brachyury T expression,Brachyury T; activin added with DMSO,blocked
same,effect on END-2 CM induced Brachyury T expression,Brachyury T; activin added with END-2 CM,blocked
C[N+](C)(C)CCOC(N)=O [carbachol],beating of hES-derived cardiomyocytes in response to agonist,[2],upregulated
CNC[C@H](O)c1cccc(O)c1 [phenylephrine],beating of hES-derived cardiomyocytes in response to agonist,[2],upregulated
"C[S+](C)[O-] [DMSO, dimethyl sulphoxide]",Brachyury T expression (early mesoderm marker),"Brachyury T; aggregation phase, first 3 days",induced
same,cardiomyocyte differentiation of P19EC aggregates,"P19 EC cells [3]; control, FIG. 10",induces cardiomyocyte differentiation
same,aggregates with beating muscle,"P19 EC cells [3]; day 10, FIG. 10A",All aggregates beat
CC(C)NCC(O)c1ccc(O)c(O)c1 (stereo not drawn) [isoprenaline],beating of hES-derived cardiomyocytes in response to agonist,[2],upregulated
